Laboratory results reported in publication PMC6204527, “The Human Gut Colonizer Blastocystis Respires Using Complex II and Alternative Oxidase to Buffer Transient Oxygen Fluctuations in the Gut” (Frontiers in Cellular and Infection Microbiology, 2018).

Tests used:
[1] = target: T1, Blastocystis alternative oxidase (AOX) (Blastocystis hominis, UniProt D3GDI7); assay: O2 uptake, Clark electrode, E. coli FN102 membranes; type: biochemical; details: 1 mM duroquinol; O2 co-substrate (250 μM); 50 mM Tris-HCl pH 7.5; 25 °C
T1 construct: full-length 304 aa (predicted 35 kDa), N-terminal 6xHis from pET-14b, expressed in heme-deficient E. coli FN102; E. coli membranes or whole cells
T1 sequence (D3GDI7 1-304): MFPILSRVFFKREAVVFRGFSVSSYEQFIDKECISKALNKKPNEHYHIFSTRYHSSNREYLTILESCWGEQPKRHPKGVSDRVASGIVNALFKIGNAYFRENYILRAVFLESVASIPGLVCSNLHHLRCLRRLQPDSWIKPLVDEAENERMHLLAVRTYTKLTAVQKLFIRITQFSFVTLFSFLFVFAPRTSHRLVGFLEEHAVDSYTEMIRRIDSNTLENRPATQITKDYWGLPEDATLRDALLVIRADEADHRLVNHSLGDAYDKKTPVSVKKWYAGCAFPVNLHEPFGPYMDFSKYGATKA

[2] = target: T1, Blastocystis alternative oxidase (AOX); assay: as above; type: biochemical; details: 1 mM duroquinol; 50 mM Tris-HCl pH 7.5; 25 °C; antimycin A 1 μM also added

| Compound | O2 uptake, Clark electrode, E. coli FN102 membranes [1] | inhibition at 25 μM [2] |
| --- | --- | --- |
| Cc1c(C)c(O)c(C)c(C)c1O [DQH2, duroquinol] | Addition of duroquinol (Sigma), an AOX substrate, initiates oxygen consumption |  |
| CCCCCCCCOC(=O)c1cc(O)c(O)c(O)c1 [OG, octylgallate] |  | Oxygen consumption is almost completely abated by the addition of octylgallate, an AOX inhibitor |
